Patent US20120115806A1 (SANOFI, priority 2009, published 2012)

Legend:
[1] = test system: Thymidine Phosphorylase (TP) expression in MCF-7 breast carcinoma cells; settings: especially with MCF-7 breast carcinoma cells; abstract, French Pharmacology Society Conference 2008; cited from earlier work
[2] = test system: taxane-resistant metastatic breast cancer; settings: 1-h i.v. infusion every 3 weeks; Ann. Oncol. 2008, 19(9), 1547-1552; cited from earlier work
[3] = Phase I/II study: pharmacokinetics and drug interaction study; settings: patients, part 1; parent and metabolite
[4] = test system: patients with metastatic breast cancer; assay: Phase I/II study: tolerance and treatment characteristics
Experimental: Part 2: the antitumor activity and the characterization of the tolerance profile were determined at the recommended dose.
The capecitabine is administered orally twice a day, in the morning and evening, from day D1 to day D14 (from the 1st to the 14th day of the cycle).
The doses could be reduced and the treatment cycle duration could be extended in the case of a severe adverse event (AE). The treatment was continued until disease progression, the presence of an unacceptable AE or the withdrawal of patient consent.
A physical examination, complete differential leukocyte and blood counts, and blood chemistry analyses were carried out before the recruitment of the patients and regularly during treatment. Tumor evaluation by radiology was carried out at recruitment of the patients and every 6 weeks. The responses were confirmed by 2 evaluations at least 4 weeks apart. Supplementary data were collected every 6 weeks until the date the study was stopped.

[5] = test system: patients with metastatic breast cancer previously treated with anthracyclines and taxanes; settings: cabazitaxel (D1) in combination with capecitabine (twice a day, D1-14)
Text: The main inclusion criteria were an age of 18 or older, a histologically proven metastatic or locally recurrent breast cancer that was inoperable, an Eastern Cooperative Oncology Group performance status (ECOG PS) of 0 to 2, prior exposure to taxanes and to anthracyclines, and adequate hematological, renal and hepatic function.
The main exclusion criteria were a simultaneous cancer, more than one chemotherapy treatment for metastatic cancer, prior exposure to capecitabine, or uncontrolled significant comorbid conditions.
Thirty-three patients with metastatic breast cancer were included in the study, all previously treated with anthracyclines and taxanes: 15 patients for part 1 and 18 for part 2.
The dose-limiting toxicities (DLTs), i.e. the list of events to be monitored, which make it possible to guide the dose escalation, were first of all predefined in the protocol in accordance with the NCI-CTCAE classification scale, version 3.
The increase in doses was studied in groups of three patients as long as no DLT was observed.

[6] = DL2: 20 mg/m^2 cabazitaxel + 2 × 1000 mg/m^2/day capecitabine for 14 days, 21 patients
[7] = Total, all dose levels, 33 patients

| Compound | induction of TP expression [1] | efficacy in taxane-resistant metastatic breast cancer [2] | pharmacokinetics affected by coadministration of the other agent [3] | Number of patients with dose reduction [4, 6] | Number of patients with dose reduction [4, 7] | maximal administered dose (MAD) [5] [mg/m^2] | recommended dose (RD) ([5]; highest dose at which less than 33% of patients exhibited a DLT) [mg/m^2] |
| --- | --- | --- | --- | --- | --- | --- | --- |
| 4α-acetoxy-2α-benzoyloxy-5β,20-epoxy-1β-hydroxy-β,10β-dimethoxy-9-oxotax-11-en-13α-yl (2R,3S)-3-tert-butoxycarbonylamino-2-hydroxy-3-phenylpropionate [cabazitaxel] | induces TP expression | can be effective | do not appear to be affected | 4 | 10 | – | – |
| CCCCCOC(=O)Nc1nc(=O)n([C@@H]2O[C@H](C)[C@@H](O)[C@H]2O)cc1F [capecitabine, 5′-deoxy-5-fluoro-N4-(pentyloxycarbonyl)cytidine N-[1-(5-deoxy-beta-D-ribofuranosyl)-5-fluoro-2-oxo-1,2-dihydropyrimidin-4-yl]carbamic acid pentyl ester] | – | – | vice versa | 3 | 7 | 1000 | 1000 |
